Laboratory results reported in patent US10597649B2, “Tau protease compositions and methods of use” (Oligomerix, Inc., priority 2011, dated 2020).
Blank lines part the entries; values can stand above or below the molecule they belong to.

Tests used:
Tau 4R2N [1] = biological target: T1, Tau 4R2N (Homo sapiens, UniProt P10636); assay: NEM treatment of tau 4R2N monomer, incubation at 37° C., non-reducing SDS-PAGE; assay type: biochemical; conditions: 1 mM NEM for 2 hr
T1 construct: Stabilization buffer enables production of full length monomer, dimer and trimer for tau protease; made in house; host or cells: E. coli BL21 (DE3) Gold
T1 sequence (P10636 1-441 isoform P10636-8): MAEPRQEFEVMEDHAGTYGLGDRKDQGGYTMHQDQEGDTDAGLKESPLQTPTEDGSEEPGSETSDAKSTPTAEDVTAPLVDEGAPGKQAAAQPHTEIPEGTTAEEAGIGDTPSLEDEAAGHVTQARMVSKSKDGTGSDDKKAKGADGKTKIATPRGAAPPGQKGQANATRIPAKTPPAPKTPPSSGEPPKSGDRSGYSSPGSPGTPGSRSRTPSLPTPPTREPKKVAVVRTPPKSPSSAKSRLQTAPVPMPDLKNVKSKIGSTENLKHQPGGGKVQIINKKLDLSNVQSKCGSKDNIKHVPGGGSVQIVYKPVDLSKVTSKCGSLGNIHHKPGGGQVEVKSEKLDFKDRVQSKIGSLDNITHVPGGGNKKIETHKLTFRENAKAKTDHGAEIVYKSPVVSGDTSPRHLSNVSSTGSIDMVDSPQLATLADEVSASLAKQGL
Procedure: FIG. 2 illustrates the formation of disulfide mediated tau oligomers preceded truncation and higher order aggregate formation. Tau 4R2N oligomers were purified by continuous-elution electrophoresis and monomer was further purified by pooling and buffer exchanging using spin columns with a molecular weight cut-off of 7000 Da into 25 mM Tris-HCl pH 7.4. A small amount of the monomer was treated with freshly-prepared NEM at a final concentration of 1 mM for 2 hr at ambient temperature. For incubations, monomer treated and untreated with NEM was allowed to incubate at 37° C. over the weekend (approximately 50 hrs), followed by separation on 4-20% sodium dodecyl sulfate (SDS)-polyacrylamide gel electrophoresis (PAGE) (SDS-PAGE) Tris-HCl gel (Bio-Rad Catalogue #345-0033 Hercules, Calif., USA) without reductant. Tau 4R2N—Disulfide-mediated oligomer formation preceded truncation, and truncation preceded higher-order aggregation. Aggregate formation was time dependent.

Tau 4R2N [2] = biological target: T1, Tau 4R2N; assay: Autoproteolytic activity of purified tau monomer, dimer and trimer (SDS-PAGE); assay type: biochemical; conditions: for degradation in contamination control study (Example 3): 0.35 μg, overnight at 37° C., equal sample volumes from purification; for autoproteolytic activity (Example 1): after buffer exchange into 25 mM Tris-HCl pH 7.4, incubation at 37° C.
Procedure: This example describes the identification of the autoproteolytic activity of tau oligomers.
(§1) Purified recombinant human tau 4R2N was prepared as described in the flow chart. Monomer, dimer and trimer species were purified preparative electrophoresis from a tau 4R2N preparation that had formed oligomers. The electrophoresis buffer contained 0.1% SDS which inhibited the proteolytic activity. Fractions containing the tau species were buffer exchanged into 25 mM Tris-HCl pH 7.4 using and Amicon ultrafiltration device (Merck Millipore, Billerica, Mass.), which led to restoration of tau autoproteolytic activity. Protein concentrations of the preparations were determined using the BCA kit (ThemoFisher Scientific). Samples were run on a pre-cast 4-20% polyacrylamide Tris-HCl gel (BioRad, Hercules, Calif.) without using reductant in order to visualize the disulfide mediated oligomers. The gel was stained with GelCodeBlue Safe (ThermoFisher Scientific, Rockford, Ill.). Lane 1: 5.2 μg of tau 4R2N oligomer standard; Lane 2: 2 microliter of monomer fraction before buffer exchange; Lane 3: 0.5 μg monomer after buffer exchange; Lane 4: […] of dimer fraction before buffer exchange; Lane 5: 0.5 μg dimer after buffer exchange; Lane 6: 20 μL trimer fraction before buffer exchange; Lane 7: 0.5 μg trimer after buffer exchange.
Tau 4R2N undergoes autoproteolytic cleavage (self-cleavage) when it forms disulfide-mediated oligomers upon incubation. Tau autoproteolyic activity co-purified with the dimer and trimer species. The amount of autoproteolytic activity was greatest with trimer which fragmented to the extent where no full size trimer remained after incubation. […] It was also shown that Tau autoproteolytic activity co-purified with dimer and trimer species. […] Full-length trimer digested completely into smaller fragments, and upon incubation, monomer formed an oligomeric ladder that produced a low level of autoproteolytic activity.
(§2) Monomer, Dimer, and Trimer of Tau 441 were purified under non-reducing conditions using continuous-elution electrophoresis. Fractions of each oligomer sample were pooled and buffer exchanged into stabilization buffer using an Amicon spin concentrator with a molecular weight cut-off of 30,000 daltons. 0.35 μg of each sample was incubated overnight at 37° C. while non-incubated control was kept on ice at 4° C. Next day, 2×SDS sample buffer without reductant was added to each sample and loaded onto a 4-20% gradient Tris-HCl Criterion Gel (Bio-Rad, Hercules, Calif.).
as §2, with “This example presents results from a contamination control study of tau protease. Monomer,” for “Monomer,”, “2× sodium dodecyl sulfate” for “2×SDS”
Lane 1—tau oligomer ladder standard; Lane 2—empty; Lane 3—purified monomer no incubation (fraction from purification plate); Lane 4—purified monomer without incubation; Lane 5—purified monomer with incubation; Lane 6—purified dimer without incubation; Lane 7—purified dimer with incubation; Lane 8—purified trimer without incubation; purified trimer with incubation overnight at 37° C. Lanes 3-9 were treated with sample buffer containing β-mercaptoethanol (BME).

tau 4R2N trimer [3] = biological target: T2, tau 4R2N trimer (Homo sapiens, UniProt P10636); assay: SDS titration for tau protease stabilization buffer; assay type: biochemical
T2 construct: Stabilization buffer enables production of full length monomer, dimer and trimer for tau protease; made in house; host or cells: E. coli BL21 (DE3) Gold
T2 sequence (P10636 1-441 isoform P10636-8): as above
Procedure: as §1
This example describes the development and characterization of a stabilization buffer for preserving the activity of tau protease. […]

tau 4R2N trimer [4] = biological target: T2, tau 4R2N trimer; assay: Tau 4R2N trimer incubated overnight with protease inhibitors, fragmentation read by SDS-PAGE; assay type: biochemical; conditions: overnight at 37° C., inhibitors at low and high concentrations; chymostatin 10 and 100 μM
Procedure: Tau 4R2N trimer was incubated overnight at 37° C. with and without serine-specific protease inhibitors (Sigma Aldrich, St. Louis, Mo.). The incubation volumes were 3.45 microliter at a final concentration of 0.145 mg/mL tau 4R2N trimer.
Tau 4R2N trimer was incubated overnight at 37° C. with and without serine-specific protease inhibitors at low and high concentrations.
Tau trimer protease was incubated with and without protease inhibitor cocktail overnight containing serine protease, amino-peptidase, cysteine protease and aspatic protease inhibitors.
For each sample, 0.45 μg of tau 4R2N trimer was incubated at 0.2 mg/mL overnight at 37° C. in the presence of various freshly prepared protease inhibitors. Non-incubated control was kept on ice overnight at 4° C. Next day, 2× sodium dodecyl sulfate sample buffer with reductant was added to each sample and loaded onto a 4-20% gradient Tris-HCl Criterion Gel (Bio-Rad).
Protease inhibitors targeted include serine proteases, amino-peptidases, cysteine proteases, metallo-proteases, and aspartic proteases.

tau 4R2N trimer protease = biological target: T3, tau 4R2N trimer protease (Homo sapiens, UniProt P10636); assay: Peptide assay (tau peptide 335-353, reverse-phase HPLC) used to screen serine protease inhibitors; assay type: biochemical; parameters: inhibition of cleavage of the peptide (FIG. 14D) / inhibition of cleavage of the peptide (FIG. 14F): dose or concentration left out as unconfirmed; conditions: 1 hr at room temperature before peptide substrate
T3 construct: Stabilization buffer enables production of full length monomer, dimer and trimer for tau protease; made in house; host or cells: E. coli BL21 (DE3) Gold
T3 sequence (P10636 1-441 isoform P10636-8): as above
Text: N-terminal sequencing of fragments using mass spectrometry identified autoproteolytic cut sites. In particular, cutting at the Lys340-Ser341 (340KS341) cut site occurred readily. Therefore, a 19-amino acid peptide corresponding to amino acids 335G to 353L of tau protein was synthesized that contained the KS cut site (340KS341). The reaction was monitored by reverse-phase high-pressure liquid chromatography (HPLC). […] An asterisk marks a non-specific contaminant that was used as a marker. […] 10 μg of tau peptide 335-353 ([…]) (SEQ ID NO:19) was custom synthesized by Genscript (Piscataway, N.J., USA) and 1 mg was dissolved in 1 mL of buffer (25 mM Tris-HCl pH 7.4). […] of peptide was incubated with 11 μg of tau trimer protease in 30 μL buffer 20 hr at 37° C. and analyzed by HPLC [SystemGold® 32Karat™ LC-CE System, Beckman Coulter, Inc., (Indianapolis, Ind.)] using a linear gradient of acetonitrile in 0.1% TFA 0-60% acetonitrile on an analytical C18 column (12.5 cm×2.1 mm, 5 μm, (Supelco, Bellefonte, Pa., USA). 30 μg of peptide was incubated without tau protease as a negative control and analyzed with the same method;
The peptide assay for tau 4R2N trimer activity described in FIG. 5 was used to screen a series of serine protease inhibitors. 1 mM AEBSF was incubated with tau 4R2N trimer for 1 hr at room temperature before addition of the peptide substrate. […] The asterisk indicates an artifactual peak unrelated to the peptide;

Aβ = conditions: clinical endpoint in Phase III; cited from earlier work
Tau 4R2N oligomer ladder = biological target: T4, Tau 4R2N oligomer ladder (Homo sapiens, UniProt P10636); assay: FP-TAMRA serine hydrolase probe labeling of oligomerized tau 4R2N; assay type: biochemical; conditions: pre-treated with 0, 0.1, 1.0 or 10.0 mM AEBSF for 1 hr; 5 micromolar FP-TAMRA, 4 hrs
T4 construct: Stabilization buffer enables production of full length monomer, dimer and trimer for tau protease; made in house; host or cells: E. coli BL21 (DE3) Gold
T4 sequence (P10636 1-441 isoform P10636-8): as above
Text: Tau 4R2N oligomer ladder was labeled with fluorophosphonate (FP) linked to a fluorescent TAMRA tag (ThermoFisher Scientific), a probe that is specific for active site serines in serine proteases. FP probes specifically label the serines of enzymatically-active serine hydrolases. The serine protease-specific inhibitor, AEBSF, was used in a dose-response study to determine whether tau was being specifically labeled with FP. […] Samples were run without reductant or with reductant as indicated. For labeling, 10 μg of tau 4R2N was labeled with 5 micromolar FP-TAMRA in 10 μL buffer (25 mM Tris-HCl pH 7.4, 150 mM NaCl, 0.5 mM EDTA, 0.1% NP-40, 5% glycerol) for 4 hrs at room temperature in the dark. Samples were pre-treated with 0, 0.1, 1.0, or 10.0 mM AEBSF for 1 hr at room temperature to block the active-site serine before the addition of the FP-TAMRA probe. Samples were divided in half and run with sample buffer with or without reductant as indicated;
4-(2-Aminoethyl)benzenesulfonyl fluoride hydrochloride (AEBSF) was prepared fresh in anhydrous DMSO. (Sigma Chemical Co.) A8456-≥97%, Molecular Weight: 239.69; 9 mg AEBSF/187.2 μL DMSO=200 mM. Serine hydrolase FP probes were equilibrated to room temperature in pouch with desiccant. Serine hydrolase FP probe was dissolved in 100 μL of DMSO to make a 0.1 mM stock solution. Samples were aliquotted in 5-μL/tubes and store in −80° C. freezer. […]

Tau 4R2n 241-340 (TP-99) = biological target: T5, Tau 4R2n 241-340 (TP-99) (Homo sapiens, UniProt P10636); assay: TP-99 peptide digest HPLC assay with added zinc chloride; assay type: biochemical; conditions: 100 μM zinc chloride, 44 hr at 37° C.
T5 construct: initiating methionine (N); made in house; host or cells: E. coli BL21 (DE3) Gold
T5 sequence (P10636 with tags, fused parts or gaps): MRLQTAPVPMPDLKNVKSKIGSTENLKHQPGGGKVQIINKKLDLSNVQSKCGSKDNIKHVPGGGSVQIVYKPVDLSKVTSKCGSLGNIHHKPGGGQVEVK
Procedure: As in FIG. 7, cleavage of the peptide substrate for tau protease Tau 4R2N (amino acids 335-353) was used to monitor activity using reverse-phase HPLC. […] The large peak in the lower trace indicates intact peptide which is greatly diminished in the upper trace and replaced with two smaller peaks F1 and F2 that represent fragments generated by TP-99. […] The asterisk indicates an artifact peak that is derived from the incubation tube. Ten microgram of Tau peptide 335-353 (OP-001) was incubated without TP-99, with 25 μL, TP-99 oligomer ladder, or with additional 100 μM zinc chloride, 44 hr at 37° C. in 30 μL buffer (25 mM Tris-HCl pH 7.4). Samples were analyzed by reverse phase HPLC (SystemGold® 32Karat™ LC-CE System, Beckman Coulter, Inc., (Indianapolis, Ind.)) using a linear gradient of acetonitrile in 0.1% TFA 0-60% acetonitrile on an analytical C18 column (12.5 cm×2.1 mm, 5 μm, (Supelco);

Molecule: CCN1C(=O)C=CC1=O [NEM, N-ethylmaleimide]
disulfide-mediated oligomer formation (Tau 4R2N [1]; then about 50 hrs at 37° C.): irreversibly inhibited
autoproteolytic activity (Tau 4R2N [1]; then incubation at 37° C.): loss of autoproteolytic activity
higher order aggregate formation (Tau 4R2N [1]; then incubation at 37° C.): inhibition of higher order aggregate formation

degradation in contamination control study (Example 3) (Tau 4R2N [2]): minimal cleavage
autoproteolytic activity (Example 1) (Tau 4R2N [2]): minor activity
Molecule: tau 4R2N monomer: purified monomer species of recombinant human tau 4R2N

Molecule: CCCCCCCCCCCCOS(=O)(=O)[O-].[Na+] [SDS, sodium dodecyl sulfate]
minimal inhibitory concentration for the enzymatic activity (tau 4R2N trimer [3]; 0.3 μg tau 4R2N trimer, overnight at 37° C., 50 mM TrisHCl pH 7.4): 0.002%
proteolytic activity in electrophoresis buffer (tau 4R2N trimer [3]; 0.1% SDS): inhibited

Molecule: CC(C)C[C@H](NC(=O)[C@@H](NC(=O)N[C@@H](Cc1ccccc1)C(=O)O)[C@@H]1CCN=C(N)N1)C(=O)N[C@H](C=O)Cc1ccccc1 [Chymostatin]
inhibitory effect on tau 4R2N trimer, serine protease inhibitor panel (FIG. 12) (tau 4R2N trimer [4]): greatest inhibitory effect
inhibition of cleavage of the peptide (FIG. 14D) (tau 4R2N trimer protease; chymostatin): strongly inhibited

degradation in contamination control study (Example 3) (Tau 4R2N [2]): minimal cleavage
autoproteolytic activity (Example 1) (Tau 4R2N [2]): showed autoproteolytic activity
Molecule: tau 4R2N dimer: purified disulfide-mediated dimer species of recombinant human tau 4R2N

Molecule: NCCCS(=O)(=O)O [Tramiprosate]
Status (Aβ): Failed to meet

Molecule: C[C@@H](C(=O)O)c1ccc(-c2ccccc2)c(F)c1 [R-flurbiprofen]
Status (Aβ): Failed to meet

Molecule: Cl.NCCc1ccc(S(=O)(=O)F)cc1 [AEBSF, 4-(2-Aminoethyl)benzenesulfonyl fluoride hydrochloride]
inhibition of tau 4R2N trimer protease activity, peptide assay (FIG. 14A) (tau 4R2N trimer protease; 1 mM AEBSF): inhibited
FP-TAMRA labeling of tau 4R2N (Tau 4R2N oligomer ladder): inhibited in a dose-dependent manner

Molecule: CC(C)[C@H](O)C(=O)N[C@@H](C)C(=O)N[C@@H]1C(=O)N(C)CCc2ccccc21 [Semagacestat]
Status (Aβ): Failed to meet

Molecule: gabexate mesylate
inhibition of cleavage of the peptide (FIG. 14F) (tau 4R2N trimer protease; gabexate mesylate): did not significantly inhibit

Molecule: [Cl-].[Cl-].[Zn+2] [zinc chloride]
activity of TP-99 on tau peptide 335-353 (Tau 4R2n 241-340 (TP-99)): increased the activity
